Common to all, as to assay type: in vivo
The subject of assay [1] is Chilo suppressalis. The experiment in a line: Example B1: activity against Chilo suppressalis (striped rice stemborer), artificial diet. Particulars: for percent control (mortality, anti-feedant effect or growth inhibition) at 200 ppm: 144 h, L2 larvae, 6 days after infestation, read-out: control (at least one of mortality, anti-feedant effect, growth inhibition). The method, then:
24-well microtiter plates with artificial diet were treated with aqueous test solutions prepared from 10′000 ppm DMSO stock solutions by pipetting. After drying, the plates were infested with L2 larvae (6-8 per well). The samples were assessed for mortality, anti-feeding effect, and growth inhibition in comparison to untreated samples 6 days after infestation. Control of Chilo suppressalis by a test sample is given when at least one of the categories mortality, anti-feedant effect, and growth inhibition is higher than the untreated sample.

In assay [2] the test system is Diabrotica balteata. The assay is described as follows: Example B2: activity against Diabrotica balteata (corn root worm), maize sprouts. Particulars: 96 h, L2 larvae, 4 days after infestation, read-out: effect in at least one of the two categories (mortality or growth inhibition). Here is the method:
Maize sprouts placed onto an agar layer in 24-well microtiter plates were treated with aqueous test solutions prepared from 10′000 ppm DMSO stock solutions by spraying. After drying, the plates were infested with L2 larvae (6 to 10 per well). The samples were assessed for mortality and growth inhibition in comparison to untreated samples 4 days after infestation. The following compounds gave an effect of at least 80% in at least one of the two categories (mortality or growth inhibition) at an application rate of 200 ppm: P1, P2, P3, P4, P5, P7, P8, P9, P10, P11, P12, P13, P14, P15, P16, P17, P18, P19, P20, P21, P22, P23, P24, P25, P26, P27, P28, P29, P30, P31, P33, P34, P35, P36, P37, P38, P39, P40, P41, P42, P43, P45, P46, P47, P48, P49, P50, P51, P52, P53, P55, P57, P58, P59, P60, P61, P62, P63, P64, P65, P66, P67, P69, P71, P75, P81, P82, P83.

The test system of assay [3] is Myzus persicae. The experiment in a line: Example B4: activity against Myzus persicae (green peach aphid), intrinsic activity. To be noted: 120 h, test rate 12 ppm, 5 days after infestation. The method, then:
Test compounds prepared from 10′000 ppm DMSO stock solutions were applied by pipette into 24-well microtiter plates and mixed with sucrose solution. The plates were closed with a stretched Parafilm. A plastic stencil with 24 holes was placed onto the plate and infested pea seedlings were placed directly on the Parafilm. The infested plate was closed with a gel blotting paper and another plastic stencil and then turned upside down. The samples were assessed for mortality 5 days after infestation.

In assay [4] the test system is Plutella xylostella. The experiment in a line: Example B5: activity against Plutella xylostella (diamond back moth), artificial diet, eggs. To be noted: 192 h, 8 days after infestation, read-out: effect in at least one of the two categories (mortality or growth inhibition). The method, then:
24-well microtiter plates with artificial diet were treated with aqueous test solutions prepared from 10′000 ppm DMSO stock solutions by pipetting. After drying, Plutella eggs were pipetted through a plastic stencil onto a gel blotting paper and the plate was closed with it. The samples were assessed for mortality and growth inhibition in comparison to untreated samples 8 days after infestation. The following compounds gave an effect of at least 80% in at least one of the two categories (mortality or growth inhibition) at an application rate of 200 ppm: P1, P2, P3, P4, P5, P6, P7, P8, P9, P10, P11, P12, P13, P14, P15, P16, P17, P18, P19, P20, P21, P22, P23, P24, P25, P26, P27, P28, P29, P30, P31, P32, P33, P34, P35, P36, P37, P38, P39, P40, P41, P42, P43, P44, P45, P46, P47, P48, P49, P50, P51, P52, P53, P54, P55, P57, P58, P59, P60, P61, P62, P63, P64, P65, P66, P67, P69, P70, P71, P72, P73, P74, P75, P77, P78, P81, P82, P83.

Assay [5] deals with Spodoptera littoralis. The experiment in a line: Example B6: activity against Spodoptera littoralis (Egyptian cotton leaf worm), cotton leaf discs. To be noted: foliar; for percent control (mortality, anti-feedant effect or growth inhibition) at 200 ppm: 72 h, L1 larvae, 3 days after infestation, read-out: control (at least one of mortality, anti-feedant effect, growth inhibition). Here is the method: Cotton leaf discs were placed onto agar in 24-well microtiter plates and sprayed with aqueous test solutions prepared from 10′000 ppm DMSO stock solutions. After drying the leaf discs were infested with five L1 larvae. The samples were assessed for mortality, anti-feeding effect, and growth inhibition in comparison to untreated samples 3 days after infestation. Control of Spodoptera littoralis by a test sample is given when at least one of the categories mortality, anti-feedant effect, and growth inhibition is higher than the untreated sample.

The text below walks through data of patent publication US20260132125A1, “PESTICIDALLY ACTIVE FUSED BICYCLIC HETEROAROMATIC COMPOUNDS” (priority 2022, published 2026).

Usually mortality stands for the percentage killed. Lower therefore signals more survivors. For the molecule `C[C@H](Nc1ncnc2c(C(F)(F)F)cc(Cl)cc12)c1ncnn1-c1cc(C#N)ncn1` [Compound P19, 6-[5-[(1S)-1-[[6-chloro-8-(trifluoromethyl)quinazolin-4-yl]amino]ethyl]-1,2,4-triazol-1-yl]pyrimidine-4-carbonitrile], in assay [1] (12.5 ppm), the mortality at 12.5 ppm was 80%. The percent control (mortality, anti-feedant effect or growth inhibition) at 200 ppm in assay [1] and in assay [5] was at least 80% each time. Moreover, the percent effect (mortality or growth inhibition) at 200 ppm in assay [2] and in assay [4] was at least 80% each time. Besides, the mortality at 12 ppm in assay [3] is at least 80%.
For the molecule `C[C@H](Nc1ncnc2c(C(F)(F)F)cc(Cl)cc12)c1ncnn1-c1cc(C(=O)NC(C)(C)C#N)ncn1` [Compound P43, 6-[5-[(1S)-1-[[6-chloro-8-(trifluoromethyl)quinazolin-4-yl]amino]ethyl]-1,2,4-triazol-1-yl]-N-(1-cyano-1-methyl-ethyl)pyrimidine-4-carboxamide], the percent control (mortality, anti-feedant effect or growth inhibition) at 200 ppm in assay [1] and in assay [5] was at least 80% throughout. The percent effect (mortality or growth inhibition) at 200 ppm in assay [2] and in assay [4] was at least 80% each time. This molecule returned a mortality at 12 ppm in assay [3] of at least 80%.
In the case of `C[C@H](Nc1ncnc2c(Br)cc(Br)cc12)c1ncnn1-c1cnc(C(=O)NCC#N)cn1` [Compound P72, N-(cyanomethyl)-5-[5-[(1S)-1-[(6,8-dibromoquinazolin-4-yl)amino]ethyl]-1,2,4-triazol-1-yl]pyrazine-2-carboxamide], the percent control (mortality, anti-feedant effect or growth inhibition) at 200 ppm in assay [1] and in assay [5] was at least 80% throughout. The molecule further registered a mortality at 12 ppm in assay [3] of at least 80%. Besides, in assay [4], the percent effect (mortality or growth inhibition) at 200 ppm is at least 80%.
In the case of `C[C@@H](c1ncnn1-c1cc(C(=O)N(C)CC2CC2)ncn1)N(C)c1ncnc2c(C(F)(F)F)cc(Cl)cc12` [Compound P83, 6-[5-[(1S)-1-[[6-chloro-8-(trifluoromethyl)quinazolin-4-yl]-methyl-amino]ethyl]-1,2,4-triazol-1-yl]-N-(cyclopropylmethyl)-N-methyl-pyrimidine-4-carboxamide], the percent control (mortality, anti-feedant effect or growth inhibition) at 200 ppm in assay [1] and in assay [5] was at least 80% in each case. Further, the percent effect (mortality or growth inhibition) at 200 ppm in assay [2] and in assay [4] was at least 80% in each case. For the same molecule, the mortality at 12 ppm in assay [3] was at least 80%.
Take `C[C@H](Nc1ncnc2c(I)cc(Cl)cc12)c1ncnn1-c1cnc(C(=O)NCC#N)cn1` [Compound P73, 5-[5-[(1S)-1-[(6-chloro-8-iodo-quinazolin-4-yl)amino]ethyl]-1,2,4-triazol-1-yl]-N-(cyanomethyl)pyrazine-2-carboxamide]: the percent control (mortality, anti-feedant effect or growth inhibition) at 200 ppm in assay [1] and in assay [5] was at least 80% throughout. This molecule had a mortality at 12 ppm in assay [3] of at least 80%. The percent effect (mortality or growth inhibition) at 200 ppm in assay [4] was at least 80%.
In the case of `CC(Nc1ncnc2c(C(F)(F)F)cc(Cl)cc12)c1nccnc1-c1cc(C(N)=O)ncn1` (stereo not drawn) [Compound P57, 6-[3-[1-[[6-chloro-8-(trifluoromethyl)quinazolin-4-yl]amino]ethyl]pyrazin-2-yl]pyrimidine-4-carboxamide], the mortality at 50 ppm in assay [1] (50 ppm) came out at 100%. Besides, the percent control (mortality, anti-feedant effect or growth inhibition) at 200 ppm in assay [1] and in assay [5] was at least 80% throughout. Moreover, the percent effect (mortality or growth inhibition) at 200 ppm in assay [2] and in assay [4] was at least 80% in each case. Besides, the mortality at 3.12 ppm in assay [5] (3.12 ppm) is 80%.
